In a melting point compilation (Tetko et al.; mined from patent text by program, amines drawn as free bases though some values may be those of a salt) one finds melting point data, which are given here for 86 compounds.

`Cn1cncc1C(O)(c1ccoc1)c1ccc2nc(Cl)cc(-c3cccc(Cl)c3)c2c1` (stereo unspecified): the melting point (commonly the temperature of the solid-liquid transition) came out at 246 °C.
Compound `O=C1NC(=O)C(C2C3CCCC32)O1` (stereo unspecified) yielded a melting point of 135 to 141 °C.
`O=[N+]([O-])c1ccc(NN=C(c2ccccc2)c2ccccc2)c([N+](=O)[O-])c1` yielded a melting point of 232 to 234 °C.
`COc1c(Cl)cc(Cl)cc1-n1c(=O)[nH]c2ccccc21` came in with a melting point of 202 to 203 °C.
In turn, `COc1nc(C)nc(NC(=O)NS(=O)(=O)c2ccccc2-c2ccccc2)n1` displayed a melting point of 190 to 193 °C.
For the compound `O=C(c1cn(C(=O)c2ccc(Cl)cc2)c2ccccc12)C1CSC(c2cccnc2)N1` (stereo unspecified), the melting point lay within 80 to 84 °C.
For `CC(=O)c1c(-c2ccc(OCCBr)c3ccccc23)oc2ccccc12`, the melting point lay within 115 to 117 °C.
Under `CCOC(=O)c1c(C(C)(C)O)nc(SC)n1Cc1ccc(-c2ccccc2-c2nnnn2C(c2ccccc2)(c2ccccc2)c2ccccc2)cc1` stands 125 to 127 °C.
For `COc1cccc(-c2cc(=O)c3cc(OCCCCCN4CCC(O)CC4)ccc3o2)c1`, the melting point lay in the range of 115 to 116 °C.
Turning to `Cc1c(-n2ccnc2)n(Cc2ccc(C(=O)O)cc2)c2ccccc12`, the melting point lay in the range of 221 to 225 °C.
Under `O=[N+]([O-])c1cc(C2=NOC(c3cc(C(F)(F)F)cc(C(F)(F)F)c3)(C(F)(F)F)C2)ccc1N1C=NNN1` (stereo unspecified) stands 147 to 149 °C.
Consider `CC(=O)COc1ccc(/C=C/C(=O)O)c(Oc2ncc(C(F)(F)F)cc2Cl)c1`, for which the melting point was in the range of 179 to 180 °C.
The compound `CCn1c(C)nc2cc(CN3CCN(C(c4ccccc4)c4ccccc4)CC3)ccc21` returned a melting point of 153 °C.
Consider `COc1ccc2nnc(-c3ncc([N+](=O)[O-])n3C)n2n1`, for which the melting point is 193 to 198 °C.
`CCCCc1nc2c(N)nc3ccccc3c2n1CCCNC(=O)c1cc2ccccc2cn1`: the melting point lay in the range of 204 to 205 °C.
`O=C1CCCN1S(=O)(=O)c1ccc(N2CCOCC2)cc1` had a melting point of 120 to 122 °C.
In the case of `CCOC(=O)C1CN(C(=O)c2cc(OC)c(OC)c(OC)c2)CCN1C(=O)c1cc(OC)c(OC)c(OC)c1` (stereo unspecified), the melting point was 130 °C.
Compound `O=C(C(=O)c1cccc(C(=O)C(=O)c2ccc(Oc3ccc(Br)cc3)cc2)c1)c1ccc(Oc2ccc(Br)cc2)cc1` displayed a melting point of 120 to 122 °C.
For the compound `Clc1cc2nc(Br)c(Br)nc2cc1Cl`, the melting point was in the range of 169 to 170 °C.
As to `COc1ccc(N(C)c2nc(C)nc3oc(C)cc23)cc1`, the melting point fell in the range of 108 to 109 °C.
Take `O=c1ccc2cc(-n3cnnc3)cc(C(F)(F)F)c2[nH]1`: the melting point is above 320 °C.
Turning to `Cc1cccc(-c2nc3ccccc3n2Cc2ccccc2Cl)c1`, the melting point was 117 °C.
For the compound `COc1cc(CCC(=O)O)ccc1OCCCc1cn(-c2ccc(C(F)(F)F)cn2)nc1C`, the melting point lay within 136 to 137 °C.
Under `COc1ccccc1CN1CCN(CCN2CCC(O)(c3ccccc3)CC2)C(c2ccccc2)C1` (stereo unspecified) stands 63 to 65 °C; under `CCOC(=O)Nc1cc2c(c(N)n1)N=C(c1ccccc1)[C@@H](C)N2`, 148 to 151 °C; under `CN1C(=O)C(=CN2CCOCC2)N=C(c2ccccc2Cl)c2cc(F)ccc21`, 110 to 115 °C.
As to `OCCCCCCc1ccc(OCc2coc(/C=C/c3ccccc3)n2)cc1`, the melting point lay within 94 to 95 °C.
`CCCc1c(OCC(O)COc2ccc3c(=O)cc(C=CC(=O)OCC)oc3c2CCC)ccc(C(C)=O)c1O` (stereo unspecified): the melting point lay in the range of 125 to 127 °C.
Turning to `N#Cc1ccc(OC2SCC(O)C(O)C2O)cn1` (stereo unspecified), the melting point was 179 to 180 °C.
For the compound `O=C(Nc1ccc(OC(F)F)cc1)N1N=C(c2ccc(Cl)cc2)CC1c1ccc(Cl)cc1` (stereo unspecified), the melting point was found to be 174 °C.
Take `Nc1ncnc2c1c(CCCO)nn2Cc1oc2ccccc2c(=O)c1-c1ccccc1`: the melting point was 182 to 184 °C.
`N[C@@H](Cc1ccc(C(F)(F)F)cc1)[C@H](O)c1cccc(F)c1` (racemic) had a melting point of 81 to 82 °C.
`O=C(O)c1ccc(Cl)c(NC(=O)C(CS)Cc2ccccc2)c1` (stereo unspecified): the melting point lay within 189 to 191 °C.
With `CC(C)C(=O)Nc1ccccc1C(F)(F)F`, the melting point is 114 °C.
`CCOC(=O)c1c(C(F)(F)F)nc(C(F)F)c(C(=O)OC)c1C1CO1` (stereo unspecified): the melting point lay in the range of 57.5 to 59 °C.
Regarding `CC(=O)c1cc2cccc(NS(=O)(=O)c3cccs3)c2[nH]1`, the melting point was 241 to 243 °C.
In turn, `CCCCCCCC(O)CNCCCCCCNCC(O)CCCCCCC` (stereo unspecified) registered a melting point of 122 to 129 °C.
Take `O=C(O)CCc1cc2cc(Cl)ccc2n1S(=O)(=O)c1ccc2ccccc2c1`: the melting point stood at 160 °C.
`CN(Cc1ccccc1)[C@H](Cc1c[nH]c2ccccc12)c1nc(-c2ccccc2)c[nH]1` returned a melting point of 110 to 112 °C.
The compound `O=C(CN1CC(c2ccc(Cl)cc2)CC1=O)Oc1c(Cl)c(Cl)c(Cl)c(Cl)c1Cl` (stereo unspecified) gave a melting point of 135 to 136 °C.
For `COCCOc1ccc(/C=C/C(=O)NS(=O)(=O)c2ccc(C(F)(F)F)cc2)c(Oc2ncc(C(F)(F)F)cc2Cl)c1`, the melting point was 186 °C.
Take `CC(=O)NCCC1CCc2c(Cl)cc3nn(C)cc3c21` (stereo unspecified): the melting point is 143 to 144 °C.
With `O=C(CC(=O)c1ccc(F)cc1)c1ccc(F)cc1` the figure was 70 to 72 °C; with `CC1=C(c2ccncc2)C(C)CC(=O)N1` (stereo unspecified), 184 to 186 °C.
As for `CN1C(=O)c2ccccc2Nc2ccccc21`, the melting point fell in the range of 210 to 211 °C.
`CCOc1cc(-c2ncc3[nH]c4ccc(OCc5ccccc5)cc4c3c2COC)no1` returned a melting point of 139 to 140 °C.
`O=C1Nc2cccnc2C12COc1cc3c(cc12)OCCO3` (stereo unspecified) had a melting point above 250 °C.
Regarding `CCC1=Nc2c(C)nn(C)c2C2=NCC(C)N12` (stereo unspecified), the melting point was in the range of 105 to 107 °C.
For the compound `N[C@@H](C1CCCCC1)C(O)(Cc1ccccc1)Cc1ccccc1`, the melting point was in the range of 80 to 81 °C.
`COc1ccc(C2(c3ccc(-c4ccc(F)cc4)s3)N=C(N)N(C)C2=O)cc1C` (stereo unspecified) registered a melting point of 110 °C.
`CCOC(=O)c1cc2n(c1)CN(CCC#N)c1c(OC)cccc1-2` had a melting point of 146 to 147 °C.
For the compound `COC(C)(OC)c1ccc(C2(O)CCC(C)(C)CC2)cc1`, the melting point was found to be 88 °C.
Compound `O=C(Nc1cccnc1)N1CCN(c2cc(-c3ccccc3F)ncn2)CC1` showed a melting point of 178 to 179 °C.
With `CC(C)(C)OC(=O)c1ccc(Cl)cn1` the figure was 86.3 to 88.3 °C; with `CCc1c(Cl)nc(Cl)nc1N(C=O)c1cc(C)cc(C)c1`, 124 to 125 °C.
Compound `COc1cccc(-n2ncc(C(=O)O)c2C(N)=O)c1` came in with a melting point of 213 to 216 °C.
With `O=[N+]([O-])c1ccccc1CSc1nnnn1-c1ccccc1` the figure was 158 to 161 °C; with `N#CCCNC(=O)c1cccc(-c2ccc3c(c2)C(Nc2ccc(Cl)cc2Cl)CO3)c1` (stereo unspecified), 165 to 166 °C; with `Cc1ccc(Cn2nc(C(=O)O)c(C)c2-c2ccc(Cl)cc2)cc1Cl`, 162 °C.
As to `COC(=O)c1ccc(Cl)c(Cn2nc(C(F)(F)F)n(C)c2=O)c1Cl`, the melting point came out at 109 °C.
Compound `O=C(O)CCC(=O)N1CCc2cc(S(=O)(=O)N3CCN(c4cccc(Cl)c4)CC3)ccc21` showed a melting point of 228 to 230 °C.
In turn, `O=C(c1ccccc1CBr)c1ccc(Cl)cc1CBr` came in with a melting point of 152 to 153 °C.
Compound `COP(=O)(OC)c1cc(Oc2c(Cl)cc(C(F)(F)F)cc2Cl)ccc1[N+](=O)[O-]` showed a melting point of 106 to 107 °C.
`Nc1ccc(-c2n[nH]c3c2sc2ccccc23)cc1` gave a melting point of 113 to 115 °C.
With `O=C(O)[C@@H]1C[C@H]1/C=C\c1ccc(-c2nc3ccccc3o2)cc1` (relative stereo) the figure was 171 to 172 °C.
With `CCOC(=O)C=CC=Cc1ccc([N+](=O)[O-])cc1` the figure was 150 to 152 °C.
Turning to `CCN(CC)Cc1ccc2cc(COc3cccc4c3CN(C3CCC(=O)NC3=O)C4=O)sc2c1` (stereo unspecified), the melting point was 190 to 192 °C.
Consider `N#CCc1cc(C(=O)c2ccc(Cl)cc2)cn1Cc1ccccc1`, for which the melting point was in the range of 102 to 104 °C.
With `O=S(=O)(O)c1ccc(NCc2ccccc2F)cc1`, the melting point is above 270 °C.
With `CC(=N)Nc1cccc(O)c1`, the melting point was 115 to 118 °C.
As to `C#CCCCCCCCCCCCCCCCCCCCCO`, the melting point lay within 64 to 70 °C.
`Cc1oc(-c2ccccc2)nc1CCOc1ccc(S(=O)(=O)Nc2cc(Cl)ccc2C(=O)O)cc1` yielded a melting point of 223 to 225 °C.
On to `Cc1oc(-c2ccccc2)nc1COc1ccc(I)cn1`, for which the melting point fell in the range of 129 to 130 °C.
`c1ccc(Cn2c3ccccc3c3ccsc32)cc1` registered a melting point of 96 to 98 °C.
As to `CC(C)Cc1ccc2c(c1O)C(=O)c1ccc(CC(C)C)c(O)c1C2=O`, the melting point stood at 188 °C.
The compound `Cc1cccnc1CS(N)(=O)=O` displayed a melting point of 155 to 158 °C.
With `CC[C@H](C)[C@H](Nc1nc(C(=O)c2ccccc2)ns1)C(=O)N1CCC[C@H]1C(=O)O` the figure was 132 to 134 °C.
With `O=C(O)C(=O)Nc1ccc2c(=O)c3c(oc2c1)C(=Cc1ccccc1)CC3` the figure was 253 to 256 °C.
As to `CCOC(=O)c1cnccc1CCCOc1cccnc1Oc1cccc(Cl)c1`, the melting point lay in the range of 140 to 164 °C.
Consider `CCCCCNCc1ccc(-c2ccccc2S(=O)(=O)NC(C)(C)C)cc1`, for which the melting point is 69 to 70 °C.
For the compound `CC(C)C1OP(N(CCCCCCN(C2CC(C)(C)NC(C)(C)C2)P2OCC(C)(C)C(C(C)C)O2)C2CC(C)(C)NC(C)(C)C2)OCC1(C)C` (stereo unspecified), the melting point lay within 95 to 97 °C.
With `CCC(=S)C1=C(C)NC2=C(C(=O)c3ccccc32)C1c1ccccc1[N+](=O)[O-]` (stereo unspecified) the figure was 221 °C; with `O=C(Cc1ccc(O)cc1)OCc1ccccc1`, 70 to 72 °C; with `CCCn1ncnc1COc1nc2c(cc1C(C)(C)C)nnn2-c1ccccc1F`, 127 to 129 °C.
`CCCc1c(OCCCSc2ccc(C(=O)CCC(=O)O)cc2F)ccc(C(C)=O)c1O` displayed a melting point of 115 to 116 °C.
`O=S(=O)(c1ccccc1)c1ccc2c(c1)O[C@H](CO)CO2`: the melting point fell in the range of 112 to 114 °C.
